# Test results: patent US7396534B2, “Cosmetic compositions containing Nigrospora sphaerica extracts” (Unilever Home & Personal Care USA, division of Conopco, Inc., priority 2004, dated 2008)
# How the values were obtained:
# [1] = test system: skin from 8-month old pigmented pigs; assay: Pig skin organ culture, 14C-thiouracil incorporation (new melanin synthesis); format: cell-based; details: 1.4 mg/ml (10 mM), pig skin biopsies, three day incubation
# Method: Organ Culture Method Waste skin from 8-month old pigmented pigs was shaved to remove hairs and washed thoroughly to remove debris and reduce microbial content. The cleaned skin was then dermatomed to approximately 1-mm thickness×75-cm^2 and placed in tissue culture flasks containing Dulbecco's Modified Eagle's Medium (DMEM Cat#1188507) containing penicillin (100-units/ml), streptomycin (100-ug/ml), kanamycin (200-ug/ml), […]-mM), and fungizone (0.5-ug/ml). All flasks were incubated overnight at 37° C. in the presence of 5% carbon dioxide. This allowed the skin to equilibrate for 18 hours prior to the addition of melanin inhibitors. Areas of the skin that had scratches, erythema, or uneven pigmentation were discarded. The following morning, the skin was punched into 4-mm diameter biopsies and transferred to a 96-well tissue culture plate. To each well containing a biopsy, 180-microliters of fresh DMEM containing penicillin (100-units/ml), streptomycin (100-ug/ml), […]-mM), hydrocortisone (100-μg/ml) and 0.4-μCi/ml ^14C-thiouracil (Moravek Biochemicals) was added along with 20-microliters of natural extract. […] Samples were mixed several times to ensure even dispersion, sealed, and assessed for radiolabel incorporation using a Packard TopCount scintillation counter. […]
# [2] = test system: MelanoDerm tissue equivalent model (MEL-300) containing melanocytes obtained from dark skin individuals; assay: MelanoDerm tissue equivalent model, melanin content; format: cell-based, human; details: 14 micro-g/ml (100 uM); 14-day period, relative to untreated or vehicle control
# Method: MelanoDerm Tissue Model Method
# A MelanoDerm tissue equivalent model (MEL-300 from Mat Tek, Ashland, Mass.) containing melanocytes obtained from dark skin individuals was utilized to confirm the results obtained in the pig organ culture. MelanoDerms were cultured as per the supplier instructions.
# […] Positive control was included, i.e., kojic acid, which is a known skin lightening agent. During each medium change, a portion of the waste was analyzed for levels of lactate dehydrogenase as an indicator of cellular toxicity and stress. At no time was the level of lactate dehydrogenase above the vehicle control solvents (water or ethanol).
# Determination of melanin content within each MelanoDerm was performed using the assay provided by the manufacturer. Each MelanoDerm was homogenized in 450-microliters of buffer (1% SDS, 0.05-mM EDTA, 10-mM Tris-HCl, pH 6.8) containing 20-microliters of Proteinase K (5 mg/ml) and incubated overnight at 45° C. […] The optical density of the top phase was determined (405-nm) following extraction of the sample with 100-microliters of chloroform:methanol (2:1) and centrifugation (10,000 g) for ten minutes. Optical density readings relative to the untreated or vehicle control (water or ethanol) were then calculated.
structure (smiles),measurement,setting,value
O=c1cc(CO)occ1O [Kojic Acid],% Radiolabel Reduction,[1],56%
same,% Melanin Reduction,[2],9.5%
